# Experimental data from ChEMBL document CHEMBL5154691, “Discovery of novel verinurad analogs as dual inhibitors of URAT1 and GLUT9 with improved Druggability for the treatment of hyperuricemia” (Eur J Med Chem, 2022).
# Molecular target: T1, Solute carrier family 22 member 6 (Homo sapiens, UniProt Q4U2R8)
# T1 sequence (Q4U2R8 whole entry): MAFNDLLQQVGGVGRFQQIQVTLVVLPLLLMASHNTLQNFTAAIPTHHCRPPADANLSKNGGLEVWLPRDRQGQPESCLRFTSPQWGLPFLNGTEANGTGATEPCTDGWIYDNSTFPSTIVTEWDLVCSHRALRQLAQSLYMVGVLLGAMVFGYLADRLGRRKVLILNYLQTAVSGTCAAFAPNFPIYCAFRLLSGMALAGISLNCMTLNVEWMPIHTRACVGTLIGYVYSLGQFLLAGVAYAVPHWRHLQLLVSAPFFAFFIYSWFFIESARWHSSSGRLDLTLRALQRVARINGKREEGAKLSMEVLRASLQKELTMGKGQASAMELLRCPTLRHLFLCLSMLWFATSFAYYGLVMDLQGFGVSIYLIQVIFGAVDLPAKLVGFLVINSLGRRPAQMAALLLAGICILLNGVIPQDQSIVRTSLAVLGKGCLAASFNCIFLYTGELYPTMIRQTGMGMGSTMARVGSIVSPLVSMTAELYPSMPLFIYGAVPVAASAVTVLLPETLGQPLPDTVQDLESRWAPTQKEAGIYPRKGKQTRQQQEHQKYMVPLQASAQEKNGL
# Assay: Inhibition of OAT1 (unknown origin) expressed in HEK293 cells assessed as inhibition of 6-CFL uptake preincubated for 30 mins followed by incubation with 6-CFL and measured after 15 mins by fluorescence based analysis
# Format: toxicity, cell-based
row,SMILES,IC50 [µM]
1,N#Cc1ccc(Oc2cnccc2SCCCC(=O)O)c2ccccc12,41.3
2,COc1cc(C(=O)O)ccc1CSc1ccncc1N(C)c1ccc(C#N)c2ccccc12,25.5

# Molecular target: T2, Broad substrate specificity ATP-binding cassette transporter ABCG2 (Homo sapiens, UniProt Q9UNQ0)
# T2 sequence (Q9UNQ0 whole entry): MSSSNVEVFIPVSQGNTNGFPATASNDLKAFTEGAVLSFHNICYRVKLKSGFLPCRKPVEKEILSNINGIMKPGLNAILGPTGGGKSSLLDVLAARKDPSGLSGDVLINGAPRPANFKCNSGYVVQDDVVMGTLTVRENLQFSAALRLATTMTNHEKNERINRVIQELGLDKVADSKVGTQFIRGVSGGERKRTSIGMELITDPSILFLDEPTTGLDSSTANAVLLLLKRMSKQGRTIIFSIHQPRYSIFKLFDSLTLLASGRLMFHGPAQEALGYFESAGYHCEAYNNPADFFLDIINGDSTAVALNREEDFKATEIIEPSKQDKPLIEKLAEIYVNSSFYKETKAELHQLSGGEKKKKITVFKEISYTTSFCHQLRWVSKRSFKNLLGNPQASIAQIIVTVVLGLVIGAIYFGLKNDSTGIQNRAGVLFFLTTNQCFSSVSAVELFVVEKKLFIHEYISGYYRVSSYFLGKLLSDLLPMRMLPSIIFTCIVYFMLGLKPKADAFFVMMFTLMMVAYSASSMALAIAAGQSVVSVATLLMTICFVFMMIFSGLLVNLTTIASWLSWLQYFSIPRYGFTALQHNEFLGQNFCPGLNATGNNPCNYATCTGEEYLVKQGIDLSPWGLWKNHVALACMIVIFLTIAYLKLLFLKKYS
# Assay: Inhibition of ABCG2 (unknown origin) expressed in HEK293 cells membrane vesicles assessed as inhibition of ATP-induced 14C-uric acid uptake preincubated for 15 mins followed by incubation with ATP and substrate for 5 mins by liquid scintillation counting analysis
# Format: toxicity, cell membranes, Membrane vesicle
row,SMILES,IC50 [µM]
1,N#Cc1ccc(Oc2cnccc2SCCCC(=O)O)c2ccccc12,27.9
2,COc1cc(C(=O)O)ccc1CSc1ccncc1N(C)c1ccc(C#N)c2ccccc12,34.8

# Molecular target: T3, Solute carrier family 22 member 12 (Homo sapiens, UniProt Q96S37)
# T3 sequence (Q96S37 whole entry): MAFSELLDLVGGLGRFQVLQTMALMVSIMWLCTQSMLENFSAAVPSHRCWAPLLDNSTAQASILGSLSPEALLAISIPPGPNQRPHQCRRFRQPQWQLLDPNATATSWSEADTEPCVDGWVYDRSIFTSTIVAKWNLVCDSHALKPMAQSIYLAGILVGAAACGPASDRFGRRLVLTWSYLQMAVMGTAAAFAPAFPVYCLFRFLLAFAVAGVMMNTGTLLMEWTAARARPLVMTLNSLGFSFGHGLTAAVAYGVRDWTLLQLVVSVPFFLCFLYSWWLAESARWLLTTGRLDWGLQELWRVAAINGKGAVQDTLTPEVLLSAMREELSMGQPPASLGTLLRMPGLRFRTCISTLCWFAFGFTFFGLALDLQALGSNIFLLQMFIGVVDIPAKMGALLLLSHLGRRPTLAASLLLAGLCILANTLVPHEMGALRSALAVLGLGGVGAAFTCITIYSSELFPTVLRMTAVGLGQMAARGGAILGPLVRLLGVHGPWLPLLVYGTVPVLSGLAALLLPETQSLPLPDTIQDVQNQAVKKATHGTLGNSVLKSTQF
# Assay: Inhibition of URAT1 (unknown origin)-mediated 14C-uric acid uptake expressed in HEK293 cells using 14C-uric acid as substrate preincubated for 30 mins followed by substrate addition and measured after 15 mins by liquid scintillation counting analysis
# Format: cell-based
row,SMILES,IC50 [µM]
1,COc1cc(C(=O)O)ccc1CSc1ccncc1Oc1ccc(C#N)c2ccccc12,16.4
2,N#Cc1ccc(Nc2cnccc2SCCCC(=O)O)c2ccccc12,2.78
3,COc1cc(C(=O)O)ccc1CSc1ccncc1Nc1ccc(C#N)c2ccccc12,1.66
4,CN(c1cnccc1SCc1ccc(-c2ccccc2C(=O)O)cc1)c1ccc(C#N)c2ccccc12,4.57
5,CC(C)(Sc1ccncc1Oc1ccc(C#N)c2ccccc12)C(=O)O,5.21
6,N#Cc1ccc(Nc2cnccc2SCCCCCC(=O)O)c2ccccc12,4.24
7,N#Cc1ccc(Nc2cnccc2SCc2cccc(C(=O)O)c2)c2ccccc12,1.96
8,N#Cc1ccc(Oc2cnccc2SCC(=O)O)c2ccccc12,6.97
9,N#Cc1ccc(Nc2cnccc2Sc2ccc(Br)cc2CC(=O)O)c2ccccc12,4.12
10,CN(c1cnccc1SCCCCCCC(=O)O)c1ccc(C#N)c2ccccc12,4.64
11,N#Cc1ccc(Nc2cnccc2SCc2ccc(-c3ccccc3C(=O)O)cc2)c2ccccc12,4.68
12,N#Cc1ccc(Oc2cnccc2SCCCCC(=O)O)c2ccccc12,4.22
13,N#Cc1ccc(Oc2cnccc2SCCCCCCC(=O)O)c2ccccc12,3.78
14,CN(c1cnccc1SC(C)(C)C(=O)O)c1ccc(C#N)c2ccccc12,5.36
15,CN(c1cnccc1SCCCCC(=O)O)c1ccc(C#N)c2ccccc12,3.58
16,N#Cc1ccc(Oc2cnccc2SCc2cccc(C(=O)O)c2)c2ccccc12,6.58
17,CN(c1cnccc1SCc1ccc(C(=O)O)cc1)c1ccc(C#N)c2ccccc12,6.25
18,N#Cc1ccc(Nc2cnccc2SCc2ccc(C(=O)O)cc2)c2ccccc12,2.55

row,SMILES,IC50 [µM]
1,N#Cc1ccc(Oc2cnccc2SCc2ccccc2C(=O)O)c2ccccc12,6.86
2,N#Cc1ccc(Oc2cnccc2SCCCCCC(=O)O)c2ccccc12,4.74
3,N#Cc1ccc(Nc2cnccc2SCCCCCCC(=O)O)c2ccccc12,5.75
4,CN(c1cnccc1SCc1ccccc1C(=O)O)c1ccc(C#N)c2ccccc12,4.44
5,N#Cc1ccc(Oc2cnccc2SCCCC(=O)O)c2ccccc12,1.23
6,COc1cc(C(=O)O)ccc1CSc1ccncc1N(C)c1ccc(C#N)c2ccccc12,0.46
7,CN(c1cnccc1SCCCC(=O)O)c1ccc(C#N)c2ccccc12,2.58
8,CN(c1cnccc1SCCCCCC(=O)O)c1ccc(C#N)c2ccccc12,3.76
9,N#Cc1ccc(Oc2cnccc2SCc2ccc(-c3ccccc3C(=O)O)cc2)c2ccccc12,15.1
10,CN(c1cnccc1SCc1cccc(C(=O)O)c1)c1ccc(C#N)c2ccccc12,3.57
11,COc1ccc(Sc2ccncc2Nc2ccc(C#N)c3ccccc23)c(CC(=O)O)c1,4.25
12,COc1ccc(Sc2ccncc2Oc2ccc(C#N)c3ccccc23)c(CC(=O)O)c1,14.2
13,N#Cc1ccc(Oc2cnccc2SCc2ccc(C(=O)O)cc2)c2ccccc12,10.2
14,N#Cc1ccc(Oc2cnccc2Sc2cccc([N+](=O)[O-])c2CC(=O)O)c2ccccc12,10.5
15,N#Cc1ccc(Nc2cnccc2Sc2cccc([N+](=O)[O-])c2CC(=O)O)c2ccccc12,3.44
16,N#Cc1ccc(Oc2cnccc2Sc2ccc(Br)cc2CC(=O)O)c2ccccc12,8.05
17,N#Cc1ccc(Nc2cnccc2SCCCCC(=O)O)c2ccccc12,2.28

# Molecular target: T4, Solute carrier family 2, facilitated glucose transporter member 9 (Homo sapiens) (UniProt Q9NRM0)
# T4 sequence (whole entry): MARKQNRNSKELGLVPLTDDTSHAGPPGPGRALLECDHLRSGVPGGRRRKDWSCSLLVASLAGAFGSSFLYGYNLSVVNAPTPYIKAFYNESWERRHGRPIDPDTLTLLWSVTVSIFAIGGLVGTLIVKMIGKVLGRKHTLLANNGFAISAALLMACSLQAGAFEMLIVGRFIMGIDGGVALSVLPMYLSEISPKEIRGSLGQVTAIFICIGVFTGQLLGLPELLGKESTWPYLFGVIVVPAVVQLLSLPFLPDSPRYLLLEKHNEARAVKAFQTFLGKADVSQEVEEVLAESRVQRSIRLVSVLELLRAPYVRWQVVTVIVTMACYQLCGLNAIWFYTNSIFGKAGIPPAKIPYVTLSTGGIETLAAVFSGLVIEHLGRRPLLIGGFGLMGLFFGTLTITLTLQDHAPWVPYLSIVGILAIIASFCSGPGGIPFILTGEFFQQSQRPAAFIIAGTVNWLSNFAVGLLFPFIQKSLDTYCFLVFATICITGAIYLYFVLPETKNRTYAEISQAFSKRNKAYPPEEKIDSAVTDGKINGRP
# Assay: Inhibition of GLUT9 (unknown origin) expressed in HEK293T cells assessed as inhibition of uric acid-induced current at 10 uM by whole cell patch clamp technique
# Format: cell-based
row,SMILES,inhibition [%]
1,N#Cc1ccc(Oc2cnccc2SCCCC(=O)O)c2ccccc12,15.2
2,COc1cc(C(=O)O)ccc1CSc1ccncc1N(C)c1ccc(C#N)c2ccccc12,23.1
